Measurements published in patent US11931465B2, “Functionalized Prussian blue nanoparticles, combination Prussian blue nanoparticle-based nano-immunotherapy and applications thereof” (Children's National Medical Center, priority 2016, dated 2024).
Entries after “also recorded” stand apart in the source; their conditions may differ.

Assays:
M2 mouse MPNST cells [1] = test: Flow cytometry for apoptosis/necrosis and cell cycle; assay type: cell-based; details: 0.1, 1 and 10 μM, 24 h
Method: Flow cytometry. After the relevant treatments, M2 cells were stained with PE-Annexin V (BD Pharmingen, Franklin Lakes, NJ) and 7AAD (BD Pharmingen, Franklin Lakes, NJ). For cell cycle analysis, M2 cells were stained with propidium iodide (ThermoFisher Scientific, Carlsbad, CA) after treatment. Flow cytometry was performed on a BD FACSCalibur and analyzed with the FlowJo 7.6 software.

M2 mouse MPNST cells [2] = test: CellTiter-Glo cell viability assay; assay type: cell-based; details: 48 h, 48 h treatment
Method: Cell viability assays. M2 cells were seeded at 50,000 cells per well in 96-well cell culture plates overnight. After treatment, the cells were analyzed for viability using the ATP-based CellTiter-Glo Luminescent Cell Viability Assay (Promega, Madison, WI).

M2 MPNST tumors = test: Syngeneic subcutaneous mouse model of MPNST; assay type: in vivo; details: PD901 5 mg/kg daily oral; PTT 50 μL 1 mg/mL PBNPs intratumoral, 1.5 W/cm^2 10 minutes, once
Method: In vivo studies. 1 million M2 cells were injected into the backs of B6129SF1/J mice in 100 μL 50% phosphate buffered saline (PBS, Life Technologies, Carlsbad, CA)/50% Matrigel (Corning, Corning, NY). Treatment commenced when tumors reached 10 mm in diameter. Animals were treated in four groups: (1) Untreated (n=5): animals received no treatment, (2) PTT-treated (n=5): animals were intratumorally injected with 50 μL of 1 mg/mL PBNPs and irradiated for 10 minutes with 1.5 W/cm^2 NIR laser, (3) PD901-treated (n=5): animals were given 5 mg/kg PD901 daily by oral gavage in 0.5% hydroxypropyl methylcellulose and 0.2% Tween80, and (4) PD901 plus PTT combo-treated (n=5): animals were given both PTT and PD901 treatments as listed above. […] Tumors were measured daily by calipers. For histological analysis of the effects of the treatments, tumors were harvested eight hours post treatment (treatments described above; n=2-3 per group), processed, and stained with hematoxylin and eosin (H&E) for subsequent microscopy.

ERK activation (p-ERK) = test: Western blot for p-ERK in M2 cells; assay type: cell-based, mouse
Method: Western blots. Treated M2 cells were lysed in 1×RIPA buffer [50 mM Tris-HCL (pH 7.4), 150 mM NaCl, 1% Triton X-100, 1% sodium deoxycholate, 0.1% SDS, 1 mM EDTA, complete protease inhibitor (Roche, Basel, Switzerland) and phosphatase inhibitor (Roche, Basel, Switzerland)]. Samples were analyzed by SDS-PAGE and transferred onto PVDF membranes (Millipore, Billerica, MA). The blots were then blocked in 5% non-fat milk in TBST, followed by incubation of primary antibodies at 4° C. overnight. After washing, the blots were incubated in horseradish peroxidase (HRP)-conjugated secondary antibodies at room temperature for 1 hour. Signals were detected using ECL or ECL plus (GE healthcare, Little Chalfont, United Kingdom) followed by film development. The primary antibodies used are as follows: p-ERK (1:1,000, rabbit, Cell Signaling, Danvers, MA), ERK (1:2,000, rabbit, Cell Signaling, Danvers, MA), and β-actin (1:10,000, mouse, Sigma-Aldrich, St. Louis, MO).

For O=C(NOC[C@H](O)CO)c1ccc(F)c(F)c1Nc1ccc(I)cc1F [PD901, PD-0325901], the “mechanism of cell death” value (M2 mouse MPNST cells [1]) was “both apoptosis (Annexin V+7AAD−) and late apoptosis/necrosis (7AAD+)”, the cell cycle effect (M2 mouse MPNST cells [1]; concentration-dependent) was “significant arrest of M2 cells in the G0/G1 phase” and the IC50 (M2 mouse MPNST cells [2]) was roughly 1000 nM. The median survival (M2 MPNST tumors) was 18 days, the “p-ERK expression / ERK activation” value (ERK activation (p-ERK); 1 μM, 4 h or 8 h, versus vehicle) was “effectively blocked; also recorded: markedly decreased” and the p-ERK expression (ERK activation (p-ERK); 4 h, HIGH doses: 1.0 μM PD901, 0.05 mg/mL PBNP + 1.5 W/cm^2 laser 10 minutes) was “complete eradication”.
